In US8173634B2, “Polymorphic form of 1-(4-{1-[(E)-4-cyclohexyl-3-trifluoromethyl-benzyloxyimino]-ethyl}-2-ethyl-benzyl)-azetidine-3-carboxylic” (Novartis AG, priority 2008, dated 2012):
≈ marks a conversion by molar mass, not a printed value.

Columns and labels:
[1] = Solubility of Crystalline Form A in test solvents (excess solid equilibrated, filtrate by HPLC); assay type: physicochemical; conditions: for pH of final solution: 25°C solubility test; for solubility at 8 days: 25°C, equilibrated 8 days; for solubility at 4 days: 37°C, equilibrated 4 days
Method: (§1) The solubility and dissolution rate of the Crystalline form A of the free base of compound I prepared as described in Example 1 were tested in various solvents.
(§2) For solubility measurements, excess Form A of the free base of compound I was added to the test solvents and equilibrated for 8 days at 25° C.±0.5° C. and 4 days at 37±0.5° C. Slurries were filtered and the filtrate saved for HPLC solubility determinations. Dissolution rate measurements were carried out in 0.5 cm^2 Vankel punch and die assemblies and a pellet pressure of 2000 pounds. The dissolution was measured using fiber optics dissolution system (C technologies Inc.) and a Cary UV/VIS spectrophotometer, with a stirring rate of 200 rpm. The solution medium was held at 37±0.5° C. and the concentration measurements were made at 260 nm.

[2] = Intrinsic dissolution rate (Vankel punch and die, fiber optics UV at 260 nm, 200 rpm, 37°C); assay type: physicochemical; conditions: for Intrinsic dissolution rate: 37°C, 200 rpm
Method: as §1, §2

For `CCc1cc(/C(C)=N/OCc2ccc(C3CCCCC3)c(C(F)(F)F)c2)ccc1CN1CC(C(=O)O)C1` [Compound I, 1-(4-{1-[(E)-4-cyclohexyl-3-trifluoromethyl-benzyloxyimino]-ethyl}-2-ethyl-benzyl)-azetidine-3-carboxylic acid], the “pH of final solution” value ([1]; 0.01N HCL) was 2.24, the “pH of final solution” value ([1]; 0.01N HCl + SDS (0.1%)) was 2.33 and the “pH of final solution” value ([1]; 0.1N HCl + SDS (0.1%)) was 1.48. For the same molecule, the “pH of final solution” value ([1]; 0.1N HCl) was 1.49, the “pH of final solution” value ([1]; Phosphate buffer, pH 6.8) was 7.02 and the “pH of final solution” value ([1]; Water + SDS (0.1%)) was 7.02. For the same molecule, the “pH of final solution” value ([1]; Water) was 6.28, the solubility at 8 days ([1]; aqueous buffer, thermodynamic from solid, Phosphate buffer, pH 6.8) was 0.47 µg/mL (≈ 0.91 µM) and the solubility at 8 days ([1]; aqueous with cosolvent or surfactant or cyclodextrin, thermodynamic from solid, Acetonitrile/water (1:1 v/v)) was greater than 40000 µg/mL. For the same molecule, the solubility at 8 days ([1]; aqueous with cosolvent or surfactant or cyclodextrin, thermodynamic from solid, Ethanol/water (1:1 v/v)) was 13900 µg/mL (≈ 26900 µM), the solubility at 8 days ([1]; organic solvent or mixture, thermodynamic from solid, Ethanol) was 47600 µg/mL (≈ 92100 µM) and the solubility at 8 days ([1]; organic solvent or mixture, thermodynamic from solid, acetonitrile) was 610 µg/mL (≈ 1180 µM). The solubility at 8 days ([1]; pH 1.48, aqueous with cosolvent or surfactant or cyclodextrin, thermodynamic from solid, 0.1N HCl + SDS (0.1%)) was 22 µg/mL, the solubility at 8 days ([1]; pH 1.49, simulated gastric fluid, thermodynamic from solid, 0.1N HCl) was 1.5 µg/mL (≈ 2.9 µM) and the solubility at 8 days ([1]; pH 2.24, simulated gastric fluid, thermodynamic from solid, 0.01N HCL) was 0.6 µg/mL (≈ 1.16 µM). It also gave a solubility at 8 days ([1]; pH 2.33, aqueous with cosolvent or surfactant or cyclodextrin, thermodynamic from solid, 0.01N HCl + SDS (0.1%)) of 994 µg/mL, a solubility at 8 days ([1]; pH 6.28, thermodynamic from solid, Water) of 33 µg/mL (≈ 63.9 µM) and a solubility at 8 days ([1]; pH 7.02, aqueous with cosolvent or surfactant or cyclodextrin, thermodynamic from solid, Water + SDS (0.1%)) of 1190 µg/mL. For the same molecule, the solubility at 4 days ([1]; simulated gastric fluid, thermodynamic from solid, 0.01N HCl) was less than 0.5 µg/mL, the solubility at 4 days ([1]; simulated gastric fluid, thermodynamic from solid, 0.1N HCl) was 1.9 µg/mL (≈ 3.68 µM) and the “Solubility (overall assessment)” value ([1]; summary of Tables 2-3) was “good solubility”. For the same molecule, the solubility at 4 days ([1]; thermodynamic from solid, water) was 106 µg/mL (≈ 205 µM), the Intrinsic dissolution rate ([2]; 0.01N HCl + SDS (0.1%)) was 0.0245 mg min^−1 cm^−2 and the Intrinsic dissolution rate ([2]; 0.1N HCl + SDS (0.1%)) was 0.0368 mg min^−1 cm^−2. For the same molecule, the Intrinsic dissolution rate ([2]; Water + SDS (0.1%)) was 0.0098 mg min^−1 cm^−2 and the “Dissolution (overall assessment)” value ([2]; summary of Table 4) was “relatively quick dissolution”.
